Test results from patent US9320810B2, “HMGN2 peptides and related molecules that selectively home to tumor blood vessels and tumor cells” (Sanford-Burnham Medical Research Institute, priority 2002, dated 2016).
Where no end group is shown, it is not given here.

Key:
[1] = system: mitochondrial membranes; conditions: cited from earlier work
[2] = system: HL-60 cells; assay: Phage binding to cultured HL-60 cells in vitro; type: cell-based, human; conditions: phage-displayed HMGN1 exon 3 sequence
Experimental: (§1) In particular, about 1000 times more SEQ ID NO:5-displaying phage than non-recombinant T7 phage bound to cultured HL-60 or MDA-MB-435 cells in vitro. Similarly, SEQ ID NO:5-displaying also bound cell suspensions prepared from HL-60 tumors with a 1000-fold specificity relative to control T7 phage.
The phage binding assay was performed essentially as follows. Attachment of phage to cells was quantified by incubating 1×10^8 pfu of phage displaying SEQ ID NO: 9 for 60 minutes with 1×10^6 HL-60 cells at 4° C. in Tris-buffered saline with 1 mM Ca^+2 and 1 mM MgCl2. Bound phage were rescued after four washes with phosphate-buffered saline by adding 1 ml of bacteria for 7 minutes at room temperature. Bound phage were quantified by plating and counting pfu.
Binding of SEQ ID NO: 9-displaying phage to tumor cells was inhibited by free SEQ ID NO: 9 peptide in a dose dependent fashion. […] In contrast, background binding of non-recombinant phage was unaffected by free peptide. Specificity of cell binding by peptide SEQ ID NO: 9 was further confirmed by comparing HL-60 cell binding of phage expressing the HMGN2 exon 3 sequence PQRRSARLSA (SEQ ID NO: 11) to binding with phage expressing the homologous HMGN1 exon 3 sequence PKRRSARLSA (SEQ ID NO: 12).

[3] = system: primary cells obtained from HL-60 xenograft tumors; assay: Phage binding to primary cells obtained from HL-60 xenograft tumors; type: cell-based, human; conditions: phage-displayed
Text: as §1
Phage displaying a set of sequences corresponding to fragments of the amino-terminal portion of HMGN2 (SEQ ID NO: 5) were constructed to localize the region responsible for cell binding and in vivo homing. Fragments were designed to follow the exon/intron boundaries of the HMGN2 gene. Inserts encoding the indicated fragments were amplified from the full length HMGN2 phage clone by PCR, purified, digested and directionally cloned into the T7 415-1 and 10-3 vectors. Phage were packaged, amplified and sequenced according to the manufacturer's instructions. Phage preparations were then tested for binding to primary cells obtained from HL-60 xenograft tumors. After a 1 hour incubation at 4° C., cells were washed, and bound phage quantified. […] Furthermore, phage displaying the N-terminal portion of the active fragment SEQ ID NO: 9, which corresponds to exon 3 of the HMGN2 gene, were prepared. These phage expressing the sequence PQRRSARLSA (SEQ ID NO: 11) bound to tumor cells 90-fold more than non-recombinant phage.

[4] = system: HL-60 xenograft tumors; assay: Tissue localization of intravenously injected fluorescein-conjugated peptide, HL-60 xenograft mice; type: in vivo, mouse; conditions: tail vein
Experimental: To study peptide localization, fluorescein-conjugated SEQ ID NO: 9 or ARALPSQRSR (SEQ ID NO: 13) was injected into the tail vein of mice bearing HL-60 or MDA-MB-435 xenografts. Peptide injection was followed 10 minutes later by injection of biotinylated tomato lectin, a marker of the vasculature. After another five minutes, mice were perfused through the heart with fixative solution, and the organs dissected, sectioned and stained with streptavidin-AlexaFluor 594. Slides were counter-stained with DAPI and examined under an inverted fluorescent microscope.
As shown in FIGS. 3A and G-J, fluorescence predominantly localized to nuclei, with most of the tumor cells containing fluorescence positioned close to blood vessels. […] In some microscopic fields, SEQ ID NO: 9 fluorescence essentially was limited to the endothelial cells, clearly illustrating the expression of peptide SEQ ID NO: 9 within endothelial cells and their nuclei (see FIG. 3F).
Histological analyses were performed as follows. […] Biotin-conjugated lectin was detected with streptavidin-Alexa 594 (Molecular Probes; Eugene, Oreg.); the slides were mounted with Vectashield-DAPI (Vector Laboratories; Burlingame, Calif.), and examined under an inverted fluorescent microscope.

[5] = system: human bone marrow mononuclear cells; assay: Flow cytometry of fluorescein-labeled peptide binding to human bone marrow mononuclear cells; type: cell-based; conditions: FIG. 4, fluorescent peptide
Experimental: Fluorescein-labeled SEQ ID NO: 9 or control peptide SEQ ID NO: 13 (2 μM) were incubated with gradient-depleted bone marrow cells for one hour at 4° C. and analyzed in a flow cytometer. […] The SEQ ID NO: 9-positive cells were the size of lymphocytes, agranular, CD45-positive and mostly CD34-negative, a marker profile similar to that of the lineage-depleted murine bone marrow cells used in the in vitro phage selection.
Flow cytometry was performed as follows. Human bone marrow specimens represented excess material from samples collected for diagnostic purposes from adults with hematological malignancies following informed consent. A total of 2 ml of bone marrow was aspirated from the posterior iliac crest and stored in a citrate anticoagulant. Mononuclear cells were isolated by gradient centrifugation (Ficoll-Paque PLUS; Amersham Pharmacia Biotech; Uppsala, Sweden) and incubated in RPMI-1640 media supplemented with 10% FBS for two hours at 37° C. Cells subsequently were transferred to 4° C. and incubated with 1-2 μM fluorescein-conjugated peptide for 45 minutes before staining with PerCP- or PE-conjugated CD34 and CD45 antibodies (Beckton Dickinson Biosciences; San Jose, Calif.) for 30 minutes. Samples were analyzed with either a FACSCalibur or LSR flow cytometer (Beckton Dickinson Biosciences); 100,000 events were collected.

D(KLAKLAK)2: antimicrobial, pro-apoptotic peptide
concentration inducing marked mitochondrial swelling [1]: 10 µM

PKRRSARLSA [SEQ ID NO: 12]
reduction of HL-60 cell binding relative to HMGN2 phage expressing SEQ ID NO: 11 [2]: 90%

PQRRSARLSA [SEQ ID NO: 11]
binding to tumor cells relative to non-recombinant phage [3]: 90 fold

ARALPSQRSR (not fully specified (N-terminus); also: fluorescein label) [SEQ ID NO: 13, fluorescein-labeled scrambled exon 3 control peptide]
fluorescence in tumor tissue ([4]; fluorescein-conjugated peptide, about 15 minutes circulation): essentially undetectable in other tissues, including the HL-60 tumors
fluorescence in kidneys ([4]; fluorescein-labeled peptide, non-specific uptake): diffuse fluorescence accumulated in proximal tubules of kidneys
number of cells in lower right quadrant (FACS) [5]: 1
percentage of cells in lower right quadrant (FACS) [5]: 0.0
